# Measurements reported in US7507547B2, “Screening assays for antioxidants and antiproliferative compounds” (University of Massachusetts, priority 2004, dated 2009).
# Where two headings read alike, the source gives them in different places.
# Columns and labels:
# [1] = target: T1, NTR1 (Homo sapiens, UniProt P30989); test: ^125I-NT binding to PC3 cells; details: for NT Binding Assay: ability to enhance NT binding in PC3 cells; for Effect on NT binding in PC3 cells: n=3; for NT binding increased as much as / up to (fold): maximal enhancement of NT binding to PC3 cells
# T1 construct: endogenous in cells; host or cells: PC3 cells (ATCC)
# T1 sequence (P30989 whole entry): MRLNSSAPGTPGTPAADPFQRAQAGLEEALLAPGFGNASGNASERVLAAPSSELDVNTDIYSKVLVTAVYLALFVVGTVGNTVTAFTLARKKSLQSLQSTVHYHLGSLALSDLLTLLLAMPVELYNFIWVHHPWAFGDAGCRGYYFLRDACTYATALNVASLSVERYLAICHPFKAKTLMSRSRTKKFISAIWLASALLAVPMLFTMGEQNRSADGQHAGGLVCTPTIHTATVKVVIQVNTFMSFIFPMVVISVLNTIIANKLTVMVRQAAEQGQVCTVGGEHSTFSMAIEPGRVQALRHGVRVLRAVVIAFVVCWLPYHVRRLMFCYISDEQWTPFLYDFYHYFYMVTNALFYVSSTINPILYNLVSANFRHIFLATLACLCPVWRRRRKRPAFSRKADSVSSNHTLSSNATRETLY
# [2] = parameters: key: +: All of the compounds listed in Table 12 were anticancerous; details: from anticancer literature; cited from earlier work
# [3] = tested on: NT-induced inositol phosphate (IP) formation in PC3 cells; test: NT-induced IP formation in PC3 cells; type: cell-based; details: for IC50: Homo sapiens, PC-3; for IP Formation Efficacy (% decrease): maximal % decrease in NT-induced IP formation
# [4] = tested on: 5-LOX; details: range of reported values, various blood cell systems; cited from earlier work
# [5] = tested on: PC3 cells; test: NT-induced proliferation of PC3 cells (^3H-thymidine); type: cell-based; details: Homo sapiens, PC-3; 24 hours, 10 nM NT; read-out: IC50 for inhibition of NT-induced proliferation
# [6] = general reducing agents and antioxidants
# [7] = [agent] that decreased IP formation by 40%
# [8] = [agent] giving 75% increase in NT binding
# [9] = [agent] giving 100% increase in NT binding
# [10] = maximal % increase in NT binding observed for each agent
# [11] = [agent] giving 50% decrease in IP formation
compound,measurement,setting,value
"O[C@H](CS)[C@H](O)CS (racemic) [DTT, dithiothreitol]",Effect on NT binding,[1]; [6],not much affected
O=CC[C@@H](O)[C@H](O)[C@H](O)CO [2-deoxyglucose],NT Binding Assay,[1],+
same,Anti-cancer,[2],+
Oc1cc(O)c2c(c1)O[C@H](c1ccc(O)c(O)c1)[C@@H](O)C2 [(+)-catechin],Effect on NT binding in PC3 cells,[1]; used at 10-100 μM,without effect
CC1=C(C)C(=O)C(CCCCC#CCCCC#CCO)=C(C)C1=O [AA861],NT Binding Efficacy % increase,[1]; LOX blockers,155 % increase
same,IC50,[3]; [7],7 µM
COc1cc2ncnc(Nc3cccc(Cl)c3)c2cc1OC [AG1478],NT Binding Assay,[1],+
same,Anti-cancer,[2],+
O=c1cc(-c2ccc(O)cc2)oc2cc(O)cc(O)c12 [Apigenin],NT Binding Assay,[1],+
same,Anti-cancer,[2],+
"CC(=O)OCOC(=O)CN(CC(=O)OCOC(C)=O)c1ccccc1OCCOc1ccccc1N(CC(=O)OCOC(C)=O)CC(=O)OCOC(C)=O [BAPTA-AM, 1,2-bis(o-aminophenoxy)ethane-N,N,N′,N′-tetraacetic acid tetra(acetoxymethyl) ester]",Effect on NT binding,[1]; 50 μM BAPTA-AM,nor was NT binding altered
"COc1ccc(O)c(C(C)(C)C)c1 [BHA, butylated hydroxy anisole]",EC50,[1]; [8],110 µM
"O=c1cc(-c2ccccc2)oc2cc(O)c(O)c(O)c12 [Baicalein, baicalein]",IC50,[3]; [7],> 100 µM
same,Anti-cancer,[2],+
COC(=O)C1=C(C)NC(C)=C([N+](=O)[O-])C1c1ccccc1C(F)(F)F (stereo not shown) [BayK-8644],EC50,[1]; [8],16 µM
"O=C(/C=C/c1ccc(O)c(O)c1)OCCc1ccccc1 [CAPE, caffeic acid phenethyl ester]",NT Binding Efficacy % increase,[1]; LOX blockers,220 % increase
same,NT binding increased as much as / up to (fold),[1],≤ 2.8 fold
same,IC50,[3]; [7],18 µM
CCNC(=O)[C@H]1O[C@@H](n2cnc3c(N)nc(NCCc4ccc(CCC(=O)O)cc4)nc32)[C@H](O)[C@@H]1O [CGS21683],EC50,[1]; [9],22 µM
same,IC50,[4],0.01 to 1 µM
"COc1ccc([C@@H]2Sc3ccccc3N(CCN(C)C)C(=O)[C@@H]2OC(C)=O)cc1 [Diltiazem, diltiazem]",NT Binding Efficacy % increase,[1]; [10],38 % increase
same,NT binding increased as much as / up to (fold),[1],≤ 1.4 fold
c1ccc2c(c1)[I+]c1ccccc1-2 [Diphenylene iodonium],NT Binding Assay,[1],+
same,IC50,[3]; [11],35 µM
same,Anti-cancer,[2],+
"O=C(O)CN(CCOCCOCCN(CC(=O)O)CC(=O)O)CC(=O)O [EGTA, ethylene glycol tetra-acetic acid]",Increase in NT binding,[1],38±6 % increase
"CCCCCC#CCC#CCC#CCC#CCCCC(=O)O [ETYA, 5,8,11,14-eicosatetraynoic acid]",NT Binding Efficacy % increase,[1]; LOX blockers,100 % increase
same,EC50,[1]; [9],50 µM
same,IC50,[3]; [7],32 µM
same,IC50,[4],6 to 50 µM
COC(=O)c1c(C)[nH]c(C)c1C(=O)c1ccccc1Cc1ccccc1 [FPL-64176],EC50,[1]; [8],29 µM
COc1ccc2c(c1)c(C1=C(c3c[nH]c4ccccc34)C(=O)NC1=O)cn2CCCN(C)C [Go-6983],NT Binding Assay,[1],+
same,Anti-cancer,[2],+
"Cc1cc2c(C(C)C)c(O)c(O)c(C=O)c2c(O)c1-c1c(C)cc2c(C(C)C)c(O)c(O)c(C=O)c2c1O [Gossypol, gossypol]",IC50,[3]; [7],20 µM
CCCc1c(OCCCCc2nnn[nH]2)ccc(C(C)=O)c1O [LY171883],NT Binding Efficacy % increase,[1]; LOX blockers,157 % increase
same,EC50,[1]; [9],34 µM
CC(=O)N[C@@H](CS)C(=O)O [N-acetyl cysteine],Effect on NT binding in PC3 cells,[1]; used at 1-3 mM,without effect
"CC(Cc1ccc(O)c(O)c1)C(C)Cc1ccc(O)c(O)c1 (stereo not shown) [NDGA, Nordihydroguaiaretic acid]",NT Binding Efficacy % increase,[1]; LOX blockers,230 % increase
same,EC50,[1]; [9],16 µM
same,NT Binding Assay,[1],+
same,IC50,[3]; [7],7 µM
same,IC50,[4],0.3 to 2 µM
same,Anti-cancer,[2],+
"COCCOC(=O)C1=C(C)NC(C)=C(C(=O)OC(C)C)C1c1cccc([N+](=O)[O-])c1 (stereo not shown) [NIM, nimodipine]",IC50,[3]; [11],6 µM
O=C(NCCCCCCNC(=O)ON=C1CCCCC1)ON=C1CCCCC1 [RHC-80267],NT Binding Assay,[1],+
same,Anti-cancer,[2],+
"CC1=C(/C=C/C(C)=C/C=C/C(C)=C/C(=O)O)C(C)(C)CCC1 [Retinoic Acid, retinoic acid]",NT Binding Efficacy % increase,[1]; LOX blockers,180 % increase
same,IC50,[3]; [7],7 µM
CCCCCC(O)c1cccc(OCc2ccc3ccccc3n2)c1 (stereo not shown) [Rev5901],EC50,[1]; [9],19 µM
same,NT binding increased as much as / up to (fold),[1],≤ 2.4 fold
same,IC50,[3]; [7],8 µM
same,IC50,[4],10 µM
Cn1cc(C2=C(c3ccc(Cl)cc3Cl)C(=O)NC2=O)c2ccccc21 [SB-216763],NT Binding Assay,[1],+
same,Anti-cancer,[2],+
Cc1cc(C)c(/C=C2\C(=O)Nc3ccccc32)[nH]1 [SU5416],Anti-cancer,[2],+
CC(=O)O[C@H]1C(=O)[C@@]2(C)[C@H]([C@H](OC(=O)c3ccccc3)[C@]3(O)C[C@H](OC(=O)[C@H](O)[C@@H](NC(=O)c4ccccc4)c4ccccc4)C(C)=C1C3(C)C)[C@]1(OC(C)=O)CO[C@@H]1C[C@@H]2O [Taxol],NT Binding Assay,[1],+
O=C1O[C@H]([C@@H](O)CO)C(O)=C1O [ascorbic acid],Effect on NT binding,[1]; [6],not much affected
same,Effect on NT binding in PC3 cells,[1]; used at 20-180 μM,ineffective
N.N.[Cl][Pt][Cl] [cis-platin],NT Binding Assay,[1],+
same,Anti-cancer,[2],+
CC/C(=C(/CC)c1ccc(O)cc1)c1ccc(O)cc1 [diethylstilbesterol],NT Binding Assay,[1],+
same,Anti-cancer,[2],+
O=c1oc2c(O)c(O)cc3c(=O)oc4c(O)c(O)cc1c4c23 [ellagic acid],Effect on NT binding in PC3 cells,[1]; used at 10-100 μM,without effect
CC(C)=CCCC(C)=CCCC(C)=CCO [farnesol],NT Binding Assay,[1],+
same,Anti-cancer,[2],+
CCOC(=O)C1=C(C)NC(C)=C(C(=O)OC)C1c1cccc(Cl)c1Cl (stereo not shown) [felodipine],IC50,[3]; [11],1 µM
Fc1ccc(C(c2ccc(F)cc2)N2CCN(C/C=C/c3ccccc3)CC2)cc1 [flunarizine],NT Binding Efficacy % increase,[1]; [10],45 % increase
O=c1c(-c2ccc(O)cc2)coc2cc(O)cc(O)c12 [genistein],NT Binding Assay,[1],+
same,Anti-cancer,[2],+
N[C@@H](CCC(=O)N[C@@H](CS)C(=O)NCC(=O)O)C(=O)O [glutathione],Effect on NT binding in PC3 cells,[1]; used at 1-3 mM,without effect
O=c1cc(-c2ccc(O)c(O)c2)oc2cc(O)cc(O)c12 [luteolin],EC50,[1]; [8],40 µM
same,NT Binding Assay,[1],+
same,IC50,[3]; [11],38 µM
same,Anti-cancer,[2],+
Clc1ccc(COC(Cn2ccnc2)c2ccc(Cl)cc2Cl)c(Cl)c1 (stereo not shown) [miconazole],IP Formation Efficacy (% decrease),[3],54 % decrease
COC(=O)C1=C(C)NC(C)=C(C(=O)OCCN(C)Cc2ccccc2)C1c1cccc([N+](=O)[O-])c1 (stereo not shown) [nicardipine],IC50,[3]; [11],3 µM
same,IC50,[5],0.1 µM
CCOC(=O)C1=C(C)NC(C)=C(C(=O)OC)C1c1cccc([N+](=O)[O-])c1 (stereo not shown) [nitrendipine],IC50,[3]; [11],2 µM
c1cnc2c(c1)ccc1cccnc12 [o-phenanthroline],NT Binding Assay,[1],+
same,Anti-cancer,[2],+
Cc1ncc(CO)c(CO)c1O [pyridoxine],Effect on NT binding,[1]; [6],not much affected
same,Effect on NT binding in PC3 cells,[1]; used at 20-180 μM,ineffective
Cc1cc2nc3c(=O)[nH]c(=O)nc-3n(C[C@H](O)[C@H](O)[C@H](O)CO)c2cc1C [riboflavin],Effect on NT binding,[1]; [6],not much affected
same,Effect on NT binding in PC3 cells,[1]; used at 20-180 μM,ineffective
C=C(C)[C@H]1Cc2c(ccc3c2O[C@@H]2COc4cc(OC)c(OC)cc4[C@@H]2C3=O)O1 [rotenone],NT Binding Assay,[1],+
same,Anti-cancer,[2],+
C[C@@H]1O[C@@H](OC[C@H]2O[C@@H](Oc3c(-c4ccc(O)c(O)c4)oc4cc(O)cc(O)c4c3=O)[C@H](O)[C@@H](O)[C@@H]2O)[C@H](O)[C@H](O)[C@H]1O [rutin],Efficacy for altering NT binding to NTR,[1]; flavonoids,inactive
[BH4-].[Na+] [sodium borohydride],Effect on NT binding,[1],not much affected
same,Effect on NT binding in PC3 cells,[1]; used at 1-3 mM,without effect
COc1ccc2cc1Oc1ccc(cc1)C[C@H]1c3cc(c(OC)cc3CCN1C)Oc1c(OC)c(OC)cc3c1[C@H](C2)N(C)CC3 [tetrandrine],NT Binding Efficacy % increase,[1]; [10],35 % increase
Cc1ncc(C[n+]2csc(CCO)c2C)c(N)n1 [thiamine],Effect on NT binding,[1]; [6],not much affected
same,Effect on NT binding in PC3 cells,[1]; used at 20-180 μM,ineffective
CN1CCN(CCCN2c3ccccc3Sc3ccc(C(F)(F)F)cc32)CC1 [trifluoperazine],NT Binding Efficacy % increase,[1]; [10],16 % increase
same,IC50,[3]; [agent] at which IP formation was decreased by 50%,> 100 µM
same,IP Formation Efficacy (% decrease),[3],14 % decrease
Cc1c(C)c2c(c(C)c1O)CCC(C)(C(=O)O)O2 (stereo not shown) [trolox],Effect on NT binding,[1]; [6],not much affected
same,Effect on NT binding in PC3 cells,[1]; used at 10-100 μM,without effect
"CC1=CC(=O)c2ccccc2C1=O [vitamin K, menadione]",NT binding (% of control) at 180 µM,[1]; 180 μM,168 ± 8%
Cc1c(C)c2c(c(C)c1O)CC[C@@](C)(CCC[C@H](C)CCC[C@H](C)CCCC(C)C)O2 [α-tocoferol],Effect on NT binding in PC3 cells,[1]; used at 20-180 μM,ineffective
CC1=C(/C=C/C(C)=C/C=C/C(C)=C/C=C/C=C(C)/C=C/C=C(C)/C=C/C2=C(C)CCCC2(C)C)C(C)(C)CCC1 [β-carotene],Effect on NT binding in PC3 cells,[1]; used at 20-180 μM,ineffective
(−)-epigallocatechin gallate,Effect on NT binding in PC3 cells,[1]; used at 10-100 μM,without effect
Mevinolin,NT Binding Assay,[1],+
same,Anti-cancer,[2],+
antimycin A,Anti-cancer,[2],+
bisindole maleimide,NT Binding Assay,[1],+
same,Anti-cancer,[2],+
